PubChem BioAssay (NCI)
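48-hour exposure; five concentrations; linearly interpolated endpoints. Definition used: TGI = concentration required for complete inhibition of growth.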

Key:
Assay in all cases: inhibition of tumour cell growth, NCI panel, 48 h
A549 NSCLC = system: A549 NSCLC
SNB-75 CNS = system: SNB-75 CNS
UACC-62 melanoma = system: UACC-62 melanoma
UACC-257 melanoma = system: UACC-257 melanoma
OVCAR-4 ovarian = system: OVCAR-4 ovarian
DMS 273 small cell lung = system: DMS 273 small cell lung
HOP-62 NSCLC = system: HOP-62 NSCLC
DLD-1 colon = system: DLD-1 colon
CCRF-CEM leukemia = system: CCRF-CEM leukemia
MOLT-4 leukemia = system: MOLT-4 leukemia
HCT-15 colon = system: HCT-15 colon
NCI-H226 lung = system: NCI-H226 lung
786-0 renal = system: 786-0 renal
UO-31 renal = system: UO-31 renal
DMS 114 small cell lung = system: DMS 114 small cell lung
ACHN renal = system: ACHN renal
SR leukemia = system: SR leukemia
TK-10 renal = system: TK-10 renal
SW-620 colon = system: SW-620 colon
OVCAR-8 ovarian = system: OVCAR-8 ovarian
HCT-116 colon = system: HCT-116 colon
NCI-H23 lung = system: NCI-H23 lung
COLO 205 colon = system: COLO 205 colon
NCI-H460 lung = system: NCI-H460 lung
KM12 colon = system: KM12 colon
SK-MEL-28 melanoma = system: SK-MEL-28 melanoma
SF-268 CNS = system: SF-268 CNS
CAKI-1 renal = system: CAKI-1 renal
RPMI-8226 leukemia = system: RPMI-8226 leukemia
SF-295 CNS = system: SF-295 CNS
SK-MEL-2 melanoma = system: SK-MEL-2 melanoma
MALME-3M melanoma = system: MALME-3M melanoma
SF-539 CNS = system: SF-539 CNS
SN12C renal = system: SN12C renal
HOP-18 NSCLC = system: HOP-18 NSCLC
SNB-78 CNS = system: SNB-78 CNS
LOX IMVI melanoma = system: LOX IMVI melanoma
IGROV1 ovarian = system: IGROV1 ovarian
M19-MEL melanoma = system: M19-MEL melanoma
HT29 colon = system: HT29 colon
NCI-H522 lung = system: NCI-H522 lung
SK-MEL-5 melanoma = system: SK-MEL-5 melanoma
HOP-92 NSCLC = system: HOP-92 NSCLC
RXF 393 renal = system: RXF 393 renal
K-562 leukemia = system: K-562 leukemia
M14 melanoma = system: M14 melanoma
OVCAR-5 ovarian = system: OVCAR-5 ovarian
HL-60(TB) leukemia = system: HL-60(TB) leukemia
U251 CNS = system: U251 CNS
SK-OV-3 ovarian = system: SK-OV-3 ovarian
LXFL 529 NSCLC = system: LXFL 529 NSCLC
EKVX NSCLC = system: EKVX NSCLC
OVCAR-3 ovarian = system: OVCAR-3 ovarian
XF 498 CNS = system: XF 498 CNS
A498 renal = system: A498 renal
HCC-2998 colon = system: HCC-2998 colon
SNB-19 CNS = system: SNB-19 CNS

CC(C)C(N)=O
TGI (A549 NSCLC): > 5000 µM | TGI (SNB-75 CNS): > 5000 µM | TGI (UACC-62 melanoma): > 5000 µM | TGI (UACC-257 melanoma): > 5000 µM | TGI (OVCAR-4 ovarian): > 5000 µM | TGI (DMS 273 small cell lung): > 5000 µM | TGI (HOP-62 NSCLC): > 5000 µM | TGI (DLD-1 colon): > 5000 µM | TGI (CCRF-CEM leukemia): > 5000 µM | TGI (MOLT-4 leukemia): > 5000 µM | TGI (HCT-15 colon): > 5000 µM | TGI (NCI-H226 lung): > 5000 µM | TGI (786-0 renal): > 5000 µM | TGI (UO-31 renal): > 5000 µM | TGI (DMS 114 small cell lung): > 5000 µM | TGI (ACHN renal): > 5000 µM | TGI (SR leukemia): > 5000 µM | TGI (TK-10 renal): > 5000 µM | TGI (SW-620 colon): > 5000 µM | TGI (OVCAR-8 ovarian): > 5000 µM | TGI (HCT-116 colon): > 5000 µM | TGI (NCI-H23 lung): > 5000 µM | TGI (COLO 205 colon): > 5000 µM | TGI (NCI-H460 lung): > 5000 µM | TGI (KM12 colon): > 5000 µM | TGI (SK-MEL-28 melanoma): > 5000 µM | TGI (SF-268 CNS): > 5000 µM | TGI (CAKI-1 renal): > 5000 µM | TGI (RPMI-8226 leukemia): > 5000 µM | TGI (SF-295 CNS): > 5000 µM | TGI (SK-MEL-2 melanoma): > 5000 µM | TGI (MALME-3M melanoma): > 5000 µM | TGI (SF-539 CNS): > 5000 µM | TGI (SN12C renal): > 5000 µM | TGI (HOP-18 NSCLC): > 5000 µM | TGI (SNB-78 CNS): > 5000 µM | TGI (LOX IMVI melanoma): > 5000 µM | TGI (IGROV1 ovarian): > 5000 µM | TGI (M19-MEL melanoma): > 5000 µM | TGI (HT29 colon): > 5000 µM | TGI (NCI-H522 lung): > 5000 µM | TGI (SK-MEL-5 melanoma): > 5000 µM | TGI (HOP-92 NSCLC): > 5000 µM | TGI (RXF 393 renal): > 5000 µM | TGI (K-562 leukemia): > 5000 µM | TGI (M14 melanoma): > 5000 µM | TGI (OVCAR-5 ovarian): > 5000 µM | TGI (HL-60(TB) leukemia): > 5000 µM | TGI (U251 CNS): > 5000 µM | TGI (SK-OV-3 ovarian): > 5000 µM | TGI (LXFL 529 NSCLC): > 5000 µM

COC1=CC(=O)C2C(C1=O)C(c1ccccc1)[C@H]2C (stereo partly drawn)
TGI (A549 NSCLC): > 100 µM | TGI (EKVX NSCLC): > 100 µM | TGI (SNB-75 CNS): > 100 µM | TGI (UACC-62 melanoma): > 100 µM | TGI (DMS 273 small cell lung): > 100 µM | TGI (HOP-62 NSCLC): > 100 µM | TGI (OVCAR-3 ovarian): > 100 µM | TGI (DLD-1 colon): > 10 µM | TGI (CCRF-CEM leukemia): > 100 µM | TGI (MOLT-4 leukemia): > 10 µM | TGI (HCT-15 colon): 35.9 µM | TGI (786-0 renal): > 100 µM | TGI (UO-31 renal): > 100 µM | TGI (ACHN renal): 68.5 µM | TGI (SR leukemia): > 100 µM | TGI (TK-10 renal): > 100 µM | TGI (SW-620 colon): 36.6 µM | TGI (OVCAR-8 ovarian): > 100 µM | TGI (NCI-H23 lung): > 100 µM | TGI (COLO 205 colon): > 100 µM | TGI (NCI-H460 lung): > 100 µM | TGI (XF 498 CNS): 49.1 µM | TGI (KM12 colon): > 100 µM | TGI (A498 renal): > 100 µM | TGI (HCC-2998 colon): > 100 µM | TGI (SK-MEL-28 melanoma): > 100 µM | TGI (SF-268 CNS): > 100 µM | TGI (RPMI-8226 leukemia): > 100 µM | TGI (SF-295 CNS): > 100 µM | TGI (SK-MEL-2 melanoma): > 100 µM | TGI (MALME-3M melanoma): 57 µM | TGI (SF-539 CNS): > 100 µM | TGI (SNB-78 CNS): > 10 µM | TGI (LOX IMVI melanoma): > 100 µM | TGI (IGROV1 ovarian): > 100 µM | TGI (HT29 colon): > 100 µM | TGI (SK-MEL-5 melanoma): > 100 µM | TGI (HOP-92 NSCLC): 49.4 µM | TGI (RXF 393 renal): > 100 µM | TGI (SNB-19 CNS): > 100 µM | TGI (K-562 leukemia): > 100 µM | TGI (M14 melanoma): > 100 µM | TGI (OVCAR-5 ovarian): > 100 µM | TGI (HL-60(TB) leukemia): > 100 µM | TGI (U251 CNS): > 100 µM | TGI (SK-OV-3 ovarian): > 100 µM | TGI (LXFL 529 NSCLC): > 100 µM
